Article PMC7582705, “Structure-Based Discovery of Novel Chemical Classes of Autotaxin Inhibitors” (International Journal of Molecular Sciences, 2020)

Tests used:
Solubility (Table S1) = conditions: YES/NO
ATX [1] = target: T1, ATX (Homo sapiens, UniProt Q13822); experiment: Amplex Red Lyso-phospholipase D assay, human ATX; assay type: biochemical; design: purchased Sino Biological; conditions: for inhibition at 30 µM: Table S2, at 30uM, read-out: %inhibition at 30uM
Method: All compounds proposed were assessed for their ATX inhibitory activity in vitro using the Amplex Red assay. The Amplex Red Lyso-phospholipase D assay is a fluorometry-based assay providing a sensitive method for measuring Lyso-phospholipase D (ATX) activity in vitro. In this enzyme-coupled assay, ATX activity is monitored indirectly using 10-acetyl-3,7-dihydrophenoxazine (Amplex Red reagent), a sensitive fluorogenic probe for H2O2. ATX initially cleaves the Lysophosphatidylcholine (LPC) substrate to yield choline and Lysophosphatidic acid (LPA), while choline gets subsequently oxidized by choline oxidase to betaine and H2O2. Lastly, H2O2, in the presence of horseradish peroxidase (HRP), reacts with Amplex Red reagent in a 1:1 stoichiometry to generate the highly fluorescent product resorufin.
The inhibition assay was performed as previously described with some modifications in order to accommodate the newly-discovered lag phase in ATX kinetics. To this end, and in order to provide adequate time to the hydrolysis of LPC by ATX, we added a 30min incubation period between ATX, inhibitors and LPC. Briefly, 2 μL of different concentrations of inhibitors diluted in DMSO (Sigma-Aldrich, St. Louis, MO, USA) were incubated with 50 µL of ATX 8 nM (human or mouse ATX from Sino Biological), and 48 µL reaction buffer (50 mM Tris-Cl pH 8.0 from Thermo Fisher Scientific, Waltham, MA, USA and 5 mM CaCl2 from Honeywell-Fluka, Charlotte, NC, USA) in a black 96-well microplate for 15 min at 37 °C. Thence, another 50 µL of reaction buffer with 200 μM LPC substrate 16:0 (Avanti Polar Lipids Inc, Alabaster, AL, USA) ([…]) was added to the reaction mixture and incubated for 30 min at 37 °C in order for ATX to convert LPC to LPA and choline. Finally, 50 µL of working solution containing 200 μM Amplex Red (Invitrogen, Carlsbad, CA, USA), 4 U/mL HRP (Sigma-Aldrich, St. Louis, MO, USA), 0.4 U/mL choline oxidase (Sigma-Aldrich, St. Louis, MO, USA) in 50 mM Tris-HCl pH 8.0 and 5 mM CaCl2 was added to measure the produced choline. The reaction was monitored at 37 °C in a fluorescence plate reader using excitation at 530 nm and reading at 590 nm, every 5 min for 30 min. The velocity of the reaction and the remaining activity of ATX were calculated at the linear phase of the reaction and dose-response inhibition graphs were plotted with GraphPad Software (GraphPad Software, San Diego, CA, USA). […] In order to evaluate a possible effect of the compounds on the second (choline oxidase) and third (HRP) enzymes of the Amplex Red assay, we also performed the assay in the absence of ATX but in the presence of the compounds. Instead of ATX, we added choline chloride at a final concentration of 2 µM so as the second and third steps of the assay could proceed normally.

ATX [2] = target: T1, ATX; experiment: IC50 Eleanna (Table S2, method not described); assay type: biochemical; conditions: Table S2; read-out: IC50 Eleanna
[3] = recombinant human ATX 2 nM, LPC 16:0 substrate, Amplex Red, read-out: IC50 hATX
[4] = in vitro IC50 (Sino hATX 2nM), Table S2, Sino hATX 2nM
[5] = read-out: in vitro IC50 (Sino hATX 2nM), Table S2, Sino hATX 2nM

Row | Structure (SMILES) | Solubility (Solubility (Table S1)) | IC50 (ATX [1]; [3]) | IC50 (ATX [2]) | IC50 (ATX [1]; [4]) | further results
1 | O=C(c1ccc(Sc2ccccc2)c([N+](=O)[O-])c1)N(Cc1ccc2c(c1)OCO2)c1ccc(F)cc1 [DSHS00944, N-(1,,3-benzodioxol-5-ylmethyl)-N-(4-fluorophenyl)-3-nitro-4-,phenylsulfanylbenzamide] | YES | > 100 µM |  |  | 
2 | O=C(c1cccnc1Oc1ccc(Cl)cc1)N1CCN(C2c3ccccc3-c3ccccc32)CC1 [HTS07938, [2-(4-chlorophenoxy)pyridin-3-yl]-[4-(9H-fluoren-9-yl)piperazin-1-yl],methanone] | YES | > 100 µM |  |  | 
3 | C(=C1c2ccccc2-c2ccccc21)C(C=C1c2ccccc2-c2ccccc21)c1ccccc1 [BTB11132, 9-[3-(9H-fluoren-9-yliden)-2-phenylpropylidene]-9H-fluorene] | YES | > 100 µM |  |  | 
4 | COc1ccc(C2C(C(=O)O)c3ccccc3C(=O)N2Cc2ccc(F)cc2)cc1 (centres unmarked) [PD00668, 2-(4-fluorobenzyl)-3-(4-methoxyphenyl)-1-oxo-1,2,3,4-tetrahydroisoquinoline-4-carboxylic acid] | YES | > 100 µM |  |  | 
5 | CC(C)(C)c1ccc(-c2nnc(SCC(=O)c3ccccc3)n2-c2ccc3c(c2)OCO3)cc1 [HTS02043, 2-[[4-(1,3-benzodioxol-5-yl)-5-(4-tert-butylphenyl)-1,2,4-triazol-3-yl]sulfanyl]-1-phenylethanone] | YES | > 100 µM |  |  | 
6 | NC(=NOC(=O)c1cncc(C#Cc2ccccc2)c1)c1cccc(C(F)(F)F)c1 [KM08386, O1-{[5-(2-phenyleth-1-ynyl)-3-pyridyl]carbonyl}-3-(trifluoromethyl)benzene-1-carbohydroximamide] | YES | > 100 µM |  |  | 
7 | Nc1ncnc2c1ncn2CCc1ccccc1 [HTS11215, 9-phenethyl-9H-purin-6-amine] | YES | > 100 µM |  |  | 
8 | FC(F)(F)c1ccc2c(c1)nc(SCc1ccccc1)n2CCc1ccccc1 [RDR02791, 2-benzylsulfanyl-1-(2-phenylethyl)-5-(trifluoromethyl)benzimidazole] | YES | > 100 µM |  |  | 
9 | O=C1C2=C([CH]C=C[CH]2)C(=O)N1CN(Cc1csc2ccccc12)CN1C(=O)c2ccccc2C1=O [PD00399] | YES |  |  |  | IC50 (ATX [1]; IC50 hATX, recombinant human ATX 2 nM, LPC 16:0 substrate, Amplex Red): > 100 µM
10 | N#Cc1ccc(-c2c(NC(=O)NS(=O)(=O)c3ccccc3Cl)oc(-c3ccco3)c2C#N)cc1 [CD09529, 2-[({[(2-chlorophenyl)sulphonyl]amino}carbonyl)amino]-4-cyano-3-(4-cyanophenyl)-5-(2-furyl)furan] | YES | > 100 µM |  |  | 
11 | CCc1nc2c(C)cc(N3CCN(CC(=O)N4CC(O)C4)CC3)cn2c1N(C)c1nc(-c2ccc(F)cc2)c(C#N)s1 [GLPG1690, 2-[[2-ethyl-6-[4-[2-(3-hydroxyazetidin-1-yl)-2-oxoethyl]piperazin-1-yl]-8-methylimidazo[1,2-a]pyridin-3-yl]-methylamino]-4-(4-fluorophenyl)-1,3-thiazole-5-carbonitrile, reference compound] | YES |  |  |  | 
12 | O=C(CSc1nc2cc(Cl)ccc2o1)Nc1cc(C(F)(F)F)cc(C(F)(F)F)c1 [HTS01561, N-[3,5-bis(trifluoromethyl)phenyl]-2-[(5-chloro-1,3-benzoxazol-2-yl)thio]acetamide] | YES | > 100 µM |  |  | 
13 | O=C(NC(=O)c1ccc(-c2ccc(Cl)cc2)s1)Nc1cc(C(F)(F)F)cc(C(F)(F)F)c1 [MBE00201, N-[[3,5-bis(trifluoromethyl)phenyl]carbamoyl]-5-(4-chlorophenyl)thiophene-2-carboxamide] | YES | > 100 µM |  |  | 
14 | CC(=O)Oc1ccccc1C(=CC=C(c1ccccc1)c1ccccc1)N1CCOCC1 [RF01254, 2-(1-morpholino-4,4-diphenylbuta-1,3-dienyl)phenyl acetate] | YES | > 100 µM |  |  | 
15 | Cc1ccc(S(=O)(=O)N2CCN3C(=O)c4ccccc4C32c2ccccc2)cc1 (centres unmarked) [SC-26, 1-(4-methylphenyl)sulfonyl-9b-phenyl-2,3-dihydroimidazo[2,1-a]isoindol-5-one] |  |  | > 5 µM | > 30 µM | 
16 | COc1ccccc1C(=O)NCc1nc2ccccc2n1Cc1cc(C)ccc1C [KM-9, N-[[1-[(2,5-dimethylphenyl)methyl]benzimidazol-2-yl]methyl]-2-methoxybenzamide,] |  |  | 5 µM | > 30 µM | inhibition at 30 µM (ATX [1]): 17.1%
17 | CCOC(=O)c1c(-c2ccccc2)oc2ccc(O)c(CN3CCCCC3C)c12 (centres unmarked) [KM-48, 2,3-dihydroxybutanedioic acid;ethyl 5-hydroxy-4-[(2-methylpiperidin-1-yl)methyl]-2-phenyl-1-benzofuran-3-carboxylate] |  |  | > 5 µM |  | IC50 (ATX [1]; [5]): > 30 µM
18 | O=C(Nc1c2c(nn1-c1ccccc1)C[S+]([O-])C2)c1cccc2ccccc12 (centres unmarked) [SC-9, N-(5-oxo-2-phenyl-4,6-dihydrothieno[3,4-c]pyrazol-3-yl)naphthalene-1-carboxamide] |  |  | > 5 µM | > 30 µM | 
19 | CCOC(=O)Cc1c(CN2CCN(C)CC2)c2ccccc2n1Cc1ccccc1 [KM-30, ethyl 2-[1-benzyl-3-[(4-methylpiperazin-1-yl)methyl]indol-2-yl]acetate] |  |  | 5 µM | > 30 µM | inhibition at 30 µM (ATX [1]): 0%
20 | CCOC(=O)c1c(C)c(-c2ccccc2)n(CC(=O)N2CCc3ccccc3C2)c1C [KM-49, ethyl 1-[2-(3,4-dihydro-1H-isoquinolin-2-yl)-2-oxoethyl]-2,4-dimethyl-5-phenylpyrrole-3-carboxylate] |  |  | 5 µM | > 30 µM | 
21 | Cn1c(-c2ccccc2)c(C(=O)Cn2cnc3ccsc3c2=O)c2ccccc21 [SC-10, 3-[2-(1-methyl-2-phenylindol-3-yl)-2-oxoethyl]thieno[3,2-d]pyrimidin-4-one] |  |  | > 5 µM | > 30 µM | 
22 | CC12N[N+](c3ccccc3)=C(c3ccccc3)C1S(=O)(=O)c1ccccc12 (centres unmarked) [SC-36, 8b-methyl-2,3-diphenyl-1,3a-dihydro-[1]benzothiolo[3,2-c]pyrazol-2-ium 4,4-dioxide] |  |  | > 5 µM |  | IC50 (ATX [1]; [5]): > 30 µM
23 | Cc1ccccc1-n1nc2c(c1NC(=O)c1cccc3ccccc13)C[S+]([O-])C2 (centres unmarked) [SC-3, N-[2-(2-methylphenyl)-5-oxo-4,6-dihydrothieno[3,4-c]pyrazol-3-yl]naphthalene-1-carboxamide] |  |  | 0.6 µM | > 30 µM | inhibition at 30 µM (ATX [1]): 4.2%
24 | Cc1ccc(C)c(NC(=O)CSc2cn(CC(=O)N3CCCC3)c3ccccc23)c1 [KM-21, N-(2,5-dimethylphenyl)-2-[1-(2-oxo-2-pyrrolidin-1-ylethyl)indol-3-yl]sulfanylacetamide] |  |  | > 5 µM | > 30 µM | 
25 | CC1Cc2nc(SCC(=O)NCc3ccc(F)cc3)n(Cc3ccccc3)c(=O)c2S1 (centres unmarked) [KM-45, 2-[(3-benzyl-6-methyl-4-oxo-6,7-dihydrothieno[3,2-d]pyrimidin-2-yl)sulfanyl]-N-[(4-fluorophenyl)methyl]acetamide] |  |  | 1.3 µM | > 30 µM | inhibition at 30 µM (ATX [1]): 35.3%
26 | O=C1S/C(=C\c2ccc(OCc3ccc(B(O)O)cc3)cc2)C(=O)N1Cc1ccc(F)cc1 [HA155, [4-[[4-[(Z)-[3-[(4-fluorophenyl)methyl]-2,4-dioxo-1,3-thiazolidin-5-ylidene]methyl]phenoxy]methyl]phenyl]boronic acid, reference compound] | YES |  |  |  | 
27 | O=C(Cc1cccc2ccccc12)Nc1c2c(nn1-c1ccccc1)CS(=O)(=O)C2 [SC-5, N-(5,5-dioxo-2-phenyl-4,6-dihydrothieno[3,4-c]pyrazol-3-yl)-2-naphthalen-1-ylacetamide] |  |  | 2.2 µM | 30 µM | inhibition at 30 µM (ATX [1]): 43%
28 | O=S(=O)(c1ccc(F)cc1)N1C=Cc2ccccc2C1c1c[nH]c2ccccc12 (centres unmarked) [SC-4, 2-(4-fluorophenyl)sulfonyl-1-(1H-indol-3-yl)-1H-isoquinoline] |  |  | > 5 µM | > 30 µM | 
